{
  "source": "patent US10889748B2",
  "about": "“Process for preparing dibenzylamine quaternary ammonium salt high-temperature resistant corrosion inhibitor and applications thereof” (Southwest Petroleum University, priority 2018, dated 2021)",
  "key": {"[1]": {"assay": "4 h corrosion test at 90° C. in 20% hydrochloric acid", "settings": "P110 carbon steel, 1000 ppm inhibitor", "protocol": "The corrosion inhibition performance of corrosion inhibitors in the embodiments 1 to 4 is determined by a 4 h corrosion test at 90° C. using 20% hydrochloric acid as a corrosive medium and P110 carbon steels. The amount of corrosion inhibitors is 1000 ppm."}, "[2]": {"assay": "Determination of water solubility of corrosion inhibitors in 20% hydrochloric acid solution", "format": "physicochemical", "settings": "0.1 g corrosion inhibitor in 200 mL of 20% hydrochloric acid solution", "protocol": "(§1) The process is as follows: weigh […] of the corrosion inhibitor of the present invention, and dissolve in 200 mL of 20% hydrochloric acid solution, respectively, stir and observe its dissolution. Prepare 20% hydrochloric acid solution system adding with iron ion stabilizer citric acid, clay stabilizer potassium chloride and discharge aiding agent OP-10 or fluorocarbon surfactant, respectively, and then weigh 0.1 g of the corrosion inhibitor of the present invention and add them to the 20% hydrochloric acid solution system, to observe the compatibility."}, "[3]": {"assay": "Compatibility with 20% hydrochloric acid system containing iron ion stabilizer, clay stabilizer and discharge aiding agent", "format": "physicochemical", "settings": "0.1 g in 20% hydrochloric acid system with citric acid, potassium chloride and OP-10 or fluorocarbon surfactant; 90° C.", "protocol": "as §1, with “The water solubility of the corrosion inhibitor prepared by Embodiments 1 to 4 and its compatibility with the system containing the iron ion stabilizer, clay stabilizer and discharge aiding agent under 90° C. are determined. The” for “The”"}},
  "data": [
    {"compound": "OC(C[N+]1(Cc2ccc3ccccc3c2)CCOCC1)C[N+](Cc1ccccc1)(Cc1ccccc1)Cc1ccc2ccccc2c1", "note": "(stereo not drawn) [Embodiment 1]", "values": [
      {"measurement": "Corrosion rate", "setting": "[1]", "value": 34.87, "unit": "gm^−2h^−1"},
      {"measurement": "Inhibition rate", "setting": "[1]", "value": 95.18, "unit": "%"},
      {"measurement": "Water solubility and appearance", "setting": "[2]", "value": "Soluble colorless"},
      {"measurement": "Compatibility", "setting": "[3]", "value": "Uniform and transparent,"}
    ]},
    {"compound": "OC(C[N+](Cc1ccccc1)(Cc1ccccc1)Cc1ccccc1)C[N+]1(Cc2ccccc2)C=Cc2ccccc21", "note": "(stereo not drawn) [Embodiment 2]", "values": [
      {"measurement": "Corrosion rate", "setting": "[1]", "value": 45.79, "unit": "gm^−2h^−1"},
      {"measurement": "Inhibition rate", "setting": "[1]", "value": 93.68, "unit": "%"},
      {"measurement": "Water solubility and appearance", "setting": "[2]", "value": "Soluble colorless"},
      {"measurement": "Compatibility", "setting": "[3]", "value": "Uniform and transparent,"}
    ]},
    {"compound": "CCCCCC[N+](Cc1ccccc1)(Cc1ccccc1)CC(O)C[N+](CCCCCC)(Cc1ccccc1)CC(O)C[N+](CCCCCC)(Cc1ccccc1)Cc1ccccc1", "note": "(stereo not drawn) [Embodiment 3]", "values": [
      {"measurement": "Corrosion rate", "setting": "[1]", "value": 29.86, "unit": "gm^−2h^−1"},
      {"measurement": "Inhibition rate", "setting": "[1]", "value": 95.88, "unit": "%"},
      {"measurement": "Water solubility and appearance", "setting": "[2]", "value": "Soluble colorless"},
      {"measurement": "Compatibility", "setting": "[3]", "value": "Uniform and transparent,"}
    ]}
  ]
}
